Experimental data reported in patent US20060287383A1, “Substance exhibiting antidepressant property” (priority 2003, published 2006).

Tests used:
Type in all cases: in vivo
white outbred male rats [1] = test: Porsolt method of behavioral despair (helplessness); settings: for Time of immobility: 10 minutes observation
Excerpt: The Porsolt method of behavioral despair (helplessness) (Porsolt R. D., Anton G., Blavet N. et al. Behavioral despair in rats: a new model sensitive to antidepressant treatment//Europ. J. Pharmacol. 1978—v. 47.—p. 379-391) is the basic model for assessing antidepressants (Andreeva N. I., ? H. ? . the Methodical Guidelines for Studying Antidepressant Activity of Pharmaceuticals,//Guidebook for Experimental (Preclinical) Studies of New Pharmaceuticals of the RF Ministry of Public Health.—ZAO IIA “Remedium”.—2000.—p. 121-125). The studies have been conducted on white outbred male rats having the weight of 230-250 grams. The animals have been put into a water reservoir having 40 cm in diameter and the depth of 60 cm, for the rats cannot either run out of the reservoir or find a support in it. The water temperature has been maintained at the level of 25° C., the experiments have been conducted within the period from 12 A.M. to 4 P.M. After coming into water the animals begin displaying energetic motion activity aimed at finding a way out of the aversive (troublesome) situation, but then they stop their attempts and take a typical position in the water, while being fully immovable or making insignificant motions necessary for keeping their heads over the water surface. The depressive condition intensity rate in this test is the duration of immobility. The immobility condition has been assessed visually, determining its duration within 10 minutes of the observations. Substances having antidepressant activity alleviate this condition by reducing the immobility time.
The studies have been conducted using animals divided into groups. The animals from the experimental groups have received single doses of phenotropyl in the amounts of 25, 50 and 100 mg/kg or the standard amitriptyline medication in the amount of 10 mg/kg (ampoule solution made by Spofa, the Czech Republic) in the volume corresponding to the dose. The animals from the control group have received distilled water in the same dosage. All the substances have been given intragastrically 40 minutes before the an experiment.

white outbred male rats [2] = test: involuntary swimming in a reservoir with freely moving wheels according to Nomura
Procedure: The method of involuntary swimming in a reservoir with freely moving wheels (Nomura S., Shimizu J., Kinjo M. et al. A new behavioral test for antidepressant drugs//Eur. J. Pharmacol.—1982.—v. 83.—N 34.—p. 171-175) is widely used for assessing the action of antidepressant agents. The installation is a reservoir having dimensions of 64×30×42 cm and divided into four equal sections where wheels are located. The reservoir is filled with water at the temperature of 25° C., coming to the medium line of the wheels. The studies have been conducted with white outbred male rats having the weight from 230 to 250 grams. The rats have been put into each section in the position where their heads are opposite to the wheels, and then the wheel speed has been recorded for 10 minutes with the use of electromechanical counters. The number of wheel revolutions made by the rat for 10 minutes is recorded.
This study has been conducted with animals from different groups. The rats from the experimental groups have received single doses of phenotropyl in the amounts of 25, 50 and 100 mg/kg or the standard amitriptyline medication in the amount of 10 mg/kg (ampoule solution made by Spofa, the Czech Republic) in the volume corresponding to the dosage. The animals from the control group have received distilled water in the same dosage. All the substances have been given intragastrically 40 minutes before the an experiment.

white outbred male mice = test: haloperidol catalepsy method
Procedure: As one of the indicators for antidepressant antagonism in relation to depriming effects of neuroleptics, neuroleptic-induced catalepsy is used. The maintenance of catalepsy in animals is assessed by their ability to maintain set or unusual poses for a definite time (Morpurgo C. Effects of antiparkinson drugs on phenothiazine induced catatonia reaction//Arch. Int Pharmacodyn., 1962, vol. 137 No 1-2, p. 84-94). Reduction or prevention of catalepsy is one of the factors showing antidepressant activity in studied substances.
The studies have been conducted with white outbred male mice having the weight from 18 to 24 grams. Haloperidol is introduced intraperitoneally in a single dose of 0.5 mg/kg. Phenotropyl has been introduced intraperitoneally in doses of 50, 100 and 200 mg/kg in 15 minutes after the introduction of haloperidol. The catalepsy intensity has been assessed by time (in seconds) of keeping the animals in an uncomfortable pose where their front legs have been put onto a bar having the height of 4 cm, in 60, 120 and 180 minutes after introducing the said medications. It is shown in Table 4 that phenotropyl clearly antagonizes haloperidol-induced catalepsy.

[3] = single dose 25 mg/kg intragastrically 40 minutes before
[4] = single dose 50 mg/kg intragastrically 40 minutes before

`NC(=O)CN1CC(c2ccccc2)CC1=O` (centres unmarked) [Phenotropyl, N-carbamoyl-methyl-4-phenyl-2-pyrrolidone] was tested, and the “reduction in the time of immobility as compared to the control group” value (white outbred male rats [1]; doses of 50 and 100 mg/kg) was 1.6 times, the Time of immobility (white outbred male rats [1]; [3]) was 275.5 ± 84.2 s and the Time of immobility (white outbred male rats [1]; [4]) was 185.7 ± 49.5 s. For the same compound, the Time of immobility (white outbred male rats [1]; single dose 100 mg/kg intragastrically 40 minutes before) was 158.4 ± 43.2 s, the “antidepressant effect in behavioral despair test” value (white outbred male rats [1]; single doses of 50 and 100 mg/kg) was “pronounced antidepressant effect” and the “Number of wheel revolutions for 10 minutes” value (from here on “Number of wheel revolutions”) (white outbred male rats [2]; [3]) was 89.3 ± 17.2. For the same compound, the “Number of wheel revolutions” value (white outbred male rats [2]; [4]) was 102.7 ± 16.1, the “Number of wheel revolutions” value (white outbred male rats [2]; single dose 100 mg/kg intragastrically 40 minutes before, 100 mg/kg) was 121.8 ± 23.7 and the “Number of wheel revolutions” value (white outbred male rats [2]; single dose 100 mg/kg intragastrically 40 minutes before, listed as phenotropyl, 100 mg/kg) was 121.8±23.7. For the same compound, the “Catalepsy” value (white outbred male mice; haloperidol 0.5 mg/kg + phenotropyl 50 mg/kg intraperitoneally, 60 minutes) was 0.0 ± 0.0 s, the “Catalepsy” value (white outbred male mice; haloperidol 0.5 mg/kg + phenotropyl 50 mg/kg intraperitoneally, 120 minutes) was 8.2 ± 3.2 s and the “Catalepsy” value (white outbred male mice; haloperidol 0.5 mg/kg + phenotropyl 50 mg/kg intraperitoneally, 180 minutes) was 4.5 ± 2.5 s. For the same compound, the “Catalepsy” value (white outbred male mice; haloperidol 0.5 mg/kg + phenotropyl 100 mg/kg intraperitoneally, 60 minutes) was 0.0 ± 0.0 s, the “Catalepsy” value (white outbred male mice; haloperidol 0.5 mg/kg + phenotropyl 100 mg/kg intraperitoneally, 120 minutes) was 2.0 ± 1.0 s and the “Catalepsy” value (white outbred male mice; haloperidol 0.5 mg/kg + phenotropyl 100 mg/kg intraperitoneally, 180 minutes) was 0.0 ± 0.0 s. For the same compound, the “Catalepsy” value (white outbred male mice; haloperidol 0.5 mg/kg + phenotropyl 200 mg/kg intraperitoneally, 60 minutes) was 0.0 ± 0.0 s, the “Catalepsy” value (white outbred male mice; haloperidol 0.5 mg/kg + phenotropyl 200 mg/kg intraperitoneally, 120 minutes) was 11.8 ± 2.1 s and the “Catalepsy” value (white outbred male mice; haloperidol 0.5 mg/kg + phenotropyl 200 mg/kg intraperitoneally, 180 minutes) was 0.0 ± 0.0 s. For the same compound, the “reduction of catalepsy development level” value (white outbred male mice; phenotropyl 50 mg/kg, 120 minutes) was 3.2 times, the “reduction of catalepsy development level” value (white outbred male mice; phenotropyl 50 mg/kg, 180 minutes) was 13.2 times and the “reduction of catalepsy development level” value (white outbred male mice; phenotropyl 100 mg/kg, 120 minutes) was 14 times. The “development of catalepsy” value (white outbred male mice; phenotropyl dose of 100 or 200 mg/kg, 180 minutes) was “fully stopping its development” and the “development of catalepsy” value (white outbred male mice; phenotropyl doses of 50 and 100 mg/kg, 60 minutes) was “fully prevents the development of catalepsy”.
